From EP4506003A1, “HALOGEN DERIVATIVES OF (4´,5´- METHYLENEDIOXYPHENYL)-6,7-DIMETHOXY-1,2,3,4-TETRAHYDROISOQUINOLINE FOR USE IN THE TREATMENT OF LEUKEMIA” (S.Yu Yunusov Institute of Chemistry of Plant Substances of …, priority 2023, dated 2025)
Marks after values point to notes of the source that are not given here.

Key:
[1] = test system: lung cancer H460; conditions: cited from earlier work
[2] = test system: cervical carcinoma cells; conditions: read-out: CE50 dose; cited from earlier work
[3] = test system: CCRF-CEM (CCL-119) (T-lymphoblastic leukemia); assay: MTT cytotoxicity on CCRF-CEM cells; assay type: cell-based; conditions: Homo sapiens, 24 hours
Protocol: (§1) The cytotoxic properties of the compounds were determined in vitro using the MTT method in 96-well plates (Costar, USA). […] Rat liver hepatocytes were obtained according to the method, human blood mononuclear cells - according to [23]. Fibroblast cells were obtained according to the method of [24] with some modifications. Cell cultures were subcultured into 96-well plates according to the method of [21] by adding 100 μl of nutrient medium. The CCRF-CEM suspension culture was poured into a tube, centrifuged at 800 rpm for 10 minutes, and the supernatant was discarded. […] Data obtained in 3 independent experiments were expressed as the mean value for each concentration ± standard error of the mean, relative to the control values (cells without test compounds). The cytotoxic effect of each of the studied compounds was compared with the effect of the cytostatic Cisplatin-Naprod (India), containing cisplatin as an active component. Table 1: IC50 μM value for test compounds

[4] = test system: fibroblasts; assay: MTT cytotoxicity on fibroblasts; assay type: cell-based; conditions: Fibroblast, 24 hours
Protocol: as §1

[5] = test system: Rat liver hepatocytes; assay: MTT cytotoxicity on hepatocytes; assay type: cell-based; conditions: Rattus norvegicus, Hepatocyte, 24 hours
Protocol: as §1

[6] = Acute toxicity study (LD50); conditions: mouse, in vivo, ip
Protocol: (§2) We studied the acute toxicity of compound F1 in vivo. The experiments were carried out on outbred white mice of both sexes weighing 18-20 g (24 pcs.). The animals were divided into groups of 12 mice each. The compound was dissolved in DMSO and then adjusted to the desired concentration with 0.9% NaCl solution and administered intraperitoneally and subcutaneously in a dose range from 5.0 to 200.0 mg/kg. […] The maximum relative error of the applied dose was no more than 5%.
as §2, with “F2” for “F1”, “brought” for “adjusted”, “subcutaneously to animals” for “subcutaneously”, “administered” for “applied”

[7] = test system: outbred white mice; assay: Acute toxicity study (LD50)
Protocol: as §2
as §2, with “F2” for “F1”, “brought” for “adjusted”, “subcutaneously to animals” for “subcutaneously”, “administered” for “applied”

[8] = test system: blood of patients with leukemia (combined group); assay: Hemogram of blood of patients with leukemia (combined group) after exposure; assay type: cell-based
Text: (§3) The effect of compounds F1 and F2 was studied on biological material (blood) of patients with hematological malignancies (leukemia), as well as for individual nosologies, in particular, patients with leukemia (combined group) (n=224), T-ALL (n=84), B-ALL (n=100), ALL (n=100), AML (n= 98), AML (n=94) and AML (n= 98) were studied. A total of 798 blood samples from patients with leukemia were examined.
(§4) The drugs Cytosar (Alexan) (Ebewe Pharma, Austria) and doxorubicin (Naprod, Mumbai, India) recommended by WHO for the treatment of the above oncohematological diseases were used as comparison drugs.
(§5) 5 ml of venous blood from sick and conditionally healthy individuals were collected into Vacutainer tubes with the addition of EDTA (Himedia, India).
(§6) The resulting blood was divided into aliquots of 1 ml and 10 µl (10 µg/ml) of the studied drugs (cytosar, doxorubicin, F1 and F2) were added to each tube.

[9] = test system: blood of patients with T-ALL; assay: Hemogram of blood of patients with T-ALL after exposure; assay type: cell-based
Text: as §3, §4, §5, §6

[10] = test system: blood of patients with B-ALL; assay: Hemogram of blood of patients with B-ALL after exposure; assay type: cell-based
Protocol: A total of 798 blood samples from patients with leukemia were examined.
as §4, §5, §6

[11] = test system: blood of patients with ALL; assay: Hemogram of blood of patients with ALL after exposure; assay type: cell-based
Protocol: as §3, §5, §6

[12] = test system: blood of patients with AML; assay: Hemogram of blood of patients with AML after exposure (Example 12, Table 9); assay type: cell-based
Protocol: as §4, §5, §6

[13] = test system: blood of patients with AML; assay: Hemogram of blood of patients with AML after exposure (Example 13, Table 10; also OMML); assay type: cell-based
Protocol: as §4, §5, §6

[14] = test system: blood of patients with AML; assay: Hemogram of blood of patients with AML after exposure (Example 14, Table 11); assay type: cell-based
Text: as §3, §4, §5, §6

[15] = AML (Table 9), 10 µg/ml, 3 hours, 37.0°C
[16] = AML (Example 13), compared with doxorubicin
[17] = AML (Table 10), 10 µg/ml, 3 hours, 37.0°C
[18] = AML (Example 14), compared to cytosar
[19] = AML (Table 11), 10 µg/ml, 3 hours, 37.0°C

For `C/C=C(/C)C(=O)OC[C@H]1C2=C(C[C@H]3[C@H]4C5=C(C[C@@H]([C@H](C#N)N13)N4C)C(=O)C(C)=C(OC)C5=O)C(=O)C(C)=C(OC)C2=O` [renieramycin M], the IC50 [1] is given as 40 µM.

For `CS(=O)(=O)N1CCC(Nc2n[nH]c3c2nc(-c2c(F)cccc2F)c2cc(C(N)=O)ccc23)CC1` [5-(2,6-difluorophenyl)-3-{[1-(methylsulfonyl)piperidin-4-yl]amino}-1H-pyrazolo[4,3-c]isoquinoline-7-carboxamide], the EC50 [2] is listed as 0.259 µM.

For `COc1cc2c(cc1OC)C(c1cc3c(cc1Br)OCO3)NCC2` (stereo not shown) [Compound F1, 1-(2'-bromo-4',5'-methylenedioxyphenyl)-6,7-dimethoxy-1,2,3,4-tetrahydroisoquinoline], the IC50 [3] was 36.6 µM, the IC50 [4] was over 100 µM and the IC50 [5] was over 100 µM. The LD50 at 168 h [6] was 240 ± 13.8 mg/kg, the toxicity class ([7]; classified from LD50) was “toxicity class 3 (moderately toxic)” and the LD50 dose ([7]; intraperitoneal, mice, observed for a week, 10080 min) was 240,0±13,8 mg/kg. For the same molecule, the “LD50 value, times higher than cytosar (cytarabine)” value ([7]; relative to cytosar) was 57 times, the “LD50 value, times higher than doxorubicin” value ([7]; relative to doxorubicin) was 22 times and the “Band (s/n) neutrophils” value ([8]; 10 µg/ml, 3 hours, 37.0°C) was 2,5±0,3 %. The Blasts ([8]; 10 µg/ml, 3 hours, 37.0°C) was 65,7±2,3 %, the Destroyed cells ([8]; 10 µg/ml, 3 hours, 37.0°C) was 14,8±1,8*^ # % and the Eosinophils ([8]; 10 µg/ml, 3 hours, 37.0°C) was 4,0±0,6 %. The Lymphocytes ([8]; 10 µg/ml, 3 hours, 37.0°C) was 12,0±0,9%, the Monocytes ([8]; 10 µg/ml, 3 hours, 37.0°C) was 4,9±0,6 % and the Myelocytes ([8]; 10 µg/ml, 3 hours, 37.0°C) was 4,0±0,5 %. For the same molecule, the Promyelocytes ([8]; 10 µg/ml, 3 hours, 37.0°C) was 5,0±0,6^ %, the “Segmented (s/i) neutrophils” value ([8]; 10 µg/ml, 3 hours, 37.0°C) was 7,0±0,8% and the “decrease in the content of blasts” value ([8]; versus Control group) was 10.7%. For the same molecule, the “increase in the percentage of neutrophils” value ([8]; versus control) was 1.8 times, the “increase in the proportion of destroyed cells” value ([8]; versus control) was 9.3% and the “increase in the proportion of eosinophils” value ([8]; versus control) was 2.7 times. The “Band (s/n) neutrophils” value ([9]; 10 µg/ml, 3 hours, 37.0°C) was 0.0±0.0%, the Blasts ([9]; 10 µg/ml, 3 hours, 37.0°C) was 68,9±1,7 % and the Destroyed cells ([9]; 10 µg/ml, 3 hours, 37.0°C) was 16,9±1,1*^ # %. For the same molecule, the Eosinophils ([9]; 10 µg/ml, 3 hours, 37.0°C) was 0,0±0,6%, the Lymphocytes ([9]; 10 µg/ml, 3 hours, 37.0°C) was 9,1±1,0% and the Monocytes ([9]; 10 µg/ml, 3 hours, 37.0°C) was 1,3±0,3 %. The Myelocytes ([9]; 10 µg/ml, 3 hours, 37.0°C) was 0,0±0,0%, the Promyelocytes ([9]; 10 µg/ml, 3 hours, 37.0°C) was 0,0±0,0% and the “Segmented (s/i) neutrophils” value ([9]; 10 µg/ml, 3 hours, 37.0°C) was 3.9±0,4 %. The “decrease in p/i neutrophils” value ([9]; comparator not stated) was 1.7 times, the “increase in the proportion of destroyed cells” value ([9]; compared with cytosar) was 1.9 times and the “increase in the proportion of destroyed cells” value ([9]; compared with doxorubicin) was 1.3 times. The “decrease in the content of blasts” value [10] was 1.16 times, the “increase in the proportion of destroyed cells” value [10] was 4.1 times and the “Band (s/n) neutrophils” value ([10]; 10 µg/ml, 3 hours, 37.0°C) was 1,4±0,4%. The Blasts ([10]; 10 µg/ml, 3 hours, 37.0°C) was 59,0±2,9 %, the Destroyed cells ([10]; 10 µg/ml, 3 hours, 37.0°C) was 12,6±2,0 % and the Eosinophils ([10]; 10 µg/ml, 3 hours, 37.0°C) was 0,2±0,1%. For the same molecule, the Lymphocytes ([10]; 10 µg/ml, 3 hours, 37.0°C) was 13,5±1,7 %, the Monocytes ([10]; 10 µg/ml, 3 hours, 37.0°C) was 3,5±0,8 % and the Myelocytes ([10]; 10 µg/ml, 3 hours, 37.0°C) was 0,5±0,2%. The Promyelocytes ([10]; 10 µg/ml, 3 hours, 37.0°C) was 0,0±0,0%, the “Segmented (s/i) neutrophils” value ([10]; 10 µg/ml, 3 hours, 37.0°C) was 9,4±0,9 % and the “Band (s/n) neutrophils” value ([11]; 10 µg/ml, 3 hours, 37.0°C) was 0,3±0,1%. The Blasts ([11]; 10 µg/ml, 3 hours, 37.0°C) was 68,4±2,7*^ %, the Destroyed cells ([11]; 10 µg/ml, 3 hours, 37.0°C) was 12,9±1,7*^ % and the Eosinophils ([11]; 10 µg/ml, 3 hours, 37.0°C) was 0,0±0,0%. For the same molecule, the Lymphocytes ([11]; 10 µg/ml, 3 hours, 37.0°C) was 12,6±1,1 %, the Monocytes ([11]; 10 µg/ml, 3 hours, 37.0°C) was 1,8±0,4% and the Myelocytes ([11]; 10 µg/ml, 3 hours, 37.0°C) was 0,0±0,0%. The Promyelocytes ([11]; 10 µg/ml, 3 hours, 37.0°C) was 0,0±0,0%, the “Segmented (s/i) neutrophils” value ([11]; 10 µg/ml, 3 hours, 37.0°C) was 4,2±1,0 % and the “percentage of destroyed cells higher” value ([11]; compared to cytosar) was 2.7 times. The “difference in the level of blast cells” value ([11]; compared with cytosar) was 1.15 times, the “decrease in the percentage of blasts” value ([12]; AML (Example 12)) was 1.2 times and the “increase in the level of destroyed cells” value ([12]; AML (Example 12)) was 4.5 times. The “increase in the proportion of mature differentiated neutrophils” value ([12]; AML (Example 12)) was 2.6 times, the “increase in the percentage of destroyed cells” value ([12]; AML (Example 12), compared with cytosar) was 2.0 times and the “decrease in the percentage of destroyed cells” value ([12]; AML (Example 12), compared with doxorubicin) was 2.3 times. The “Band (s/n) neutrophils” value [12, 15] was 1,2±0,3%, the Blasts [12, 15] was 63,6±2,3 % and the Destroyed cells [12, 15] was 12,7±1,2*^ # %. For the same molecule, the Eosinophils [12, 15] was 0,4±0,2%, the Lymphocytes [12, 15] was 10,7±1,1% and the Monocytes [12, 15] was 3,0±0,7%. The Myelocytes [12, 15] was 1,2±0,6%, the Promyelocytes [12, 15] was 0,3±0,2% and the “Segmented (s/i) neutrophils” value [12, 15] was 7,0±0,7 %. For the same molecule, the “decrease in the percentage of myelocytes” value ([13]; AML (Example 13)) was 2.5 times, the “decrease in the proportion of blasts” value ([13]; AML (Example 13)) was 1.6% and the “increase in the proportion of destroyed cells” value ([13]; AML (Example 13)) was 5.3 times. For the same molecule, the “increase in the proportion of neutrophils” value ([13]; AML (Example 13)) was 2.0 times, the “proportion of destroyed cells higher” value ([13]; AML (Example 13), compared with Cytosar) was 2.4 times and the myelocytes lower [13, 16] was 1.5 times. For the same molecule, the “proportion of destroyed cells higher” value [13, 16] was 1.2 times, the “percentage of myelocytes lower” value ([13]; AML (Example 13), relative to cytosar) was 6.15 times and the “Band (s/n) neutrophils” value [13, 17] was 2,8±0,3%. The Blasts [13, 17] was 51,1±2,2%, the Destroyed cells [13, 17] was 18,7±1,3*^ # % and the Eosinophils [13, 17] was 0,8±0,3%. The Lymphocytes [13, 17] was 6,2±0,6%, the Monocytes [13, 17] was 1,4±0,2 % and the Myelocytes [13, 17] was 2,6±0,5 %. For the same molecule, the Promyelocytes [13, 17] was 0,0±0,0%, the “Segmented (s/i) neutrophils” value [13, 17] was 16,6±1,3 % and the “percentage of blasts lower” value [14, 18] was 4.1%. For the same molecule, the “percentage of monocytes lower” value [14, 18] was 2.4 times, the “percentage of destroyed cells higher” value ([14]; AML (Example 14), than after Cytosar) was 1.8 times and the “Band (s/n) neutrophils” value [14, 19] was 1,6±0,5%. For the same molecule, the Blasts [14, 19] was 55,4±3,1 %, the Destroyed cells [14, 19] was 22,6±2,3*^ % and the Eosinophils [14, 19] was 0,0±0,0%. The Lymphocytes [14, 19] was 10,1±1,0%, the Monocytes [14, 19] was 2.0±0,6^ % and the Myelocytes [14, 19] was 0,9±0,3%. The Promyelocytes [14, 19] was 0,0±0,0% and the “Segmented (s/i) neutrophils” value [14, 19] was 9,6±1,7%.
